The values below come from ChEMBL document CHEMBL1201862, “PubChem BioAssay data set” (2004).

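Protocol summary: plate cells (96-well), add compound at 5 concentrations, incubate 48 h, interpolate endpoints linearly. Here, GI50 denotes the concentration required for 50% inhibition of growth.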 Activity calls are given as the source filed them. Rule as the data show it: active = GI50 up to about 1.1 µM and inactive = higher. Some results are limits rather than exact numbers.

Test in all cases: NCI-60 cell line screen, 48 h
Assay [1] deals with NCI-H226.
The test system of assay [2] is SNB-19.
Assay [3] deals with Malme-3M.
Assay [4] has as its system SF-295.
The test system of assay [5] is U-251.
The subject of assay [6] is IGROV-1.
Assay [7] has as its system SK-MEL-2.
The subject of assay [8] is UACC-257.
The test system of assay [9] is SF-539.
For assay [10], the system named is K562.
Assay [11] has as its system EKVX.
Assay [12] concerns HCT-15.
Assay [13] has as its system SK-MEL-5.
For assay [14], the system named is OVCAR-4.
The test system of assay [15] is SK-OV-3.
Assay [16] deals with HT-29.
Assay [17] relates to NCI-H460.
Assay [18] concerns RPMI-8226.
Assay [19] concerns HOP-92.

Regarding `Cc1cccc(NC(=O)CSc2nnc(Cc3ccccc3)o2)c1`, the GI50 in [1], in assay [2], in [3], in assay [4], in [5] and in assay [6] was > 100 µM (inactive) throughout. Further, the GI50 is > 100 µM (inactive) in [7]; > 100 µM (inactive) in assay [8]; > 100 µM (inactive) in [9]; > 100 µM (inactive) in [10]; > 100 µM (inactive) in assay [11]; over 100 µM in assay [12]. The GI50 in [13], in assay [14], in assay [15], in assay [16] and in assay [17] was > 100 µM (inactive) each time.
In the case of `Brc1ccc(-c2[nH]c3ccccc3c2/N=N\c2ccccc2)cc1`, the GI50 in [2] is 20.9 µM (inactive); in assay [3], 19.1 µM (inactive); in [4], 18.8 µM (inactive); in assay [5], 17.6 µM (inactive); in assay [6] it was 12.1 µM (inactive); in assay [7], 20.5 µM (inactive). Also, the GI50 in assay [8] is 19.3 µM (inactive); in assay [9] it was 17.4 µM (inactive); in assay [10] it was 23.2 µM (inactive); in assay [18] it was 21.7 µM (inactive); in assay [11], 16.6 µM (inactive); in [12] it was 16.3 µM. Also, the GI50 in assay [13] was 18.3 µM (inactive); in assay [14] it was 16.3 µM (inactive); in assay [15], 18.9 µM (inactive); in assay [19] it was 18.2 µM (inactive); in assay [17] it was 17.1 µM (inactive).
Take `C=CCNC(=S)N1CC(C)C(=O)Nc2ccccc21` (stereo unspecified): the GI50 in [1], in assay [2], in assay [3], in assay [4], in assay [5] and in [6] was > 100 µM (inactive) throughout. Moreover, the GI50 in assay [7] is > 100 µM (inactive); in assay [9], > 100 µM (inactive); in assay [10] it was > 100 µM (inactive); in assay [18] it was > 100 µM (inactive); in [11], > 100 µM (inactive); in assay [12], over 100 µM. Moreover, the GI50 in assay [13], in assay [14], in assay [16] and in assay [17] was > 100 µM (inactive) throughout.
For `Cc1ccc(C2=Nc3ccccc3[S+]([O-])C(c3ccc4c(c3)OCO4)C2)cc1` (stereo unspecified), the GI50 was 52.6 µM (inactive) in [1]; 58.7 µM (inactive) in [2]; 33.8 µM (inactive) in assay [3]; 40.1 µM (inactive) in assay [4]; 13 µM (inactive) in assay [5]; 34.8 µM (inactive) in assay [6]. Moreover, the GI50 in assay [7] is 19 µM (inactive); in assay [8] it was 29.7 µM (inactive); in assay [9], 21.2 µM (inactive); in assay [10], 27.7 µM (inactive); in assay [11], 52 µM (inactive); in assay [13], 15 µM (inactive). The GI50 was 29.3 µM (inactive) in assay [14], 42.6 µM (inactive) in assay [15], 17.7 µM (inactive) in [16] and > 10 µM (inactive) in assay [17].
Turning to `CC1(C)C2CCC3(C2)CS(=O)(=O)N2OC231` (stereo unspecified), the GI50 was 34.4 µM (inactive) in assay [2]; 15.5 µM (inactive) in assay [3]; > 100 µM (inactive) in [4]; 34.4 µM (inactive) in assay [5]; 19.5 µM (inactive) in assay [6]; 21.1 µM (inactive) in assay [7]. Besides, the GI50 in assay [8] was 17.1 µM (inactive); in assay [9] it was 18.5 µM (inactive); in [10], 17.4 µM (inactive); in assay [18] it was 29.5 µM (inactive); in assay [11], 15.7 µM (inactive); in assay [12], 16.1 µM. The GI50 in [13] was 21 µM (inactive); in assay [15], 49.7 µM (inactive); in assay [19], 10.8 µM (inactive); in assay [16], 15.2 µM (inactive); in assay [17], 19.5 µM (inactive).
As to `O=C(CSc1nnc(Cc2ccccc2)o1)Nc1ccc(Cl)cc1Cl`, the GI50 in assay [1], in [2], in assay [3], in [4], in [5] and in [6] was > 100 µM (inactive) throughout. The GI50 in assay [7] was > 100 µM (inactive); in assay [8], > 100 µM (inactive); in [9] it was > 100 µM (inactive); in [10] it was > 100 µM (inactive); in [18], > 100 µM (inactive); in assay [12] it was over 100 µM. For the same compound, the GI50 in [13], in [14], in assay [15], in assay [16] and in assay [17] was > 100 µM (inactive) in each case.
Turning to `CN(C)c1n/c(=N/c2ccc3ccccc3c2)ss1`, the GI50 in assay [1] was 13.4 µM (inactive); in assay [2], 32 µM (inactive); in assay [3], 24.4 µM (inactive); in assay [5], 6.22 µM (inactive); in [6], 19 µM (inactive); in assay [7], 21.3 µM (inactive). The GI50 in [8] was 16.5 µM (inactive); in assay [9] it was 78.9 µM (inactive); in assay [10], 15.1 µM (inactive); in assay [18] it was 6.9 µM (inactive); in assay [12] it was 17.3 µM; in assay [13], 11.1 µM (inactive). In addition, the GI50 in assay [14] is 17.5 µM (inactive); in assay [15], 77.1 µM (inactive); in assay [17] it was 5.75 µM (inactive).
For `CCNC(=O)O/N=C1\CCC2[C@@H]3CC=C4C[C@@H](OC5CCCCO5)CC[C@]4(C)C3CC[C@]12C` (stereo partly specified), the GI50 in assay [2] is 0.723 µM (active); in assay [3] it was 1.02 µM (active); in assay [4], 2.17 µM (inactive); in assay [5], 1.89 µM (inactive); in [6] it was 3.16 µM (inactive); in assay [7], 2.2 µM (inactive). In addition, the GI50 in [8] was 1.61 µM (inactive); in [9], 6.19 µM (inactive); in [10] it was 1.37 µM (inactive); in assay [18], 1.58 µM (inactive); in assay [11], 2.51 µM (inactive); in assay [12], 1.63 µM. Further, the GI50 is 2.28 µM (inactive) in assay [13]; 1.47 µM (inactive) in assay [14]; 5.31 µM (inactive) in [15]; 2.48 µM (inactive) in assay [19]; 3.16 µM (inactive) in assay [16]; 1.93 µM (inactive) in [17].
Take `COCCCNC(=O)CC(=O)NCCCOC`: the GI50 in assay [2], in assay [3], in assay [4], in assay [5], in assay [6] and in assay [7] was > 100 µM (inactive) each time. Further, the GI50 in assay [8] is > 100 µM (inactive); in [9] it was > 100 µM (inactive); in assay [10], > 100 µM (inactive); in assay [18] it was > 100 µM (inactive); in assay [11], > 100 µM (inactive); in assay [12], over 100 µM. The GI50 in [13], in assay [14], in assay [19], in [16] and in [17] was > 100 µM (inactive) in each case.
In the case of `Cc1ccc([N+](=O)[O-])cc1NC(=O)/C(CC(=O)c1sc(C(N)=S)nc1C)=N\N`, the GI50 in assay [2] was > 100 µM (inactive); in assay [3], > 100 µM (inactive); in assay [4], 75.7 µM (inactive); in assay [5], 32.1 µM (inactive); in assay [6], 30.6 µM (inactive); in [7] it was > 100 µM (inactive). Further, the GI50 in assay [8] was > 100 µM (inactive); in assay [9], > 100 µM (inactive); in assay [10], 41.4 µM (inactive); in [18], > 100 µM (inactive); in assay [11], 65.3 µM (inactive); in [12], over 100 µM. Further, the GI50 in assay [13] was 90.6 µM (inactive); in [14] it was 31.6 µM (inactive); in [15] it was 44.1 µM (inactive); in assay [19] it was 62.8 µM (inactive); in [16] it was 72.3 µM (inactive); in [17] it was 35.1 µM (inactive).
On to `CCN(CC)c1cccc2c1C1(O)CCC3(CC21)OCCCCO3` (stereo unspecified), for which the GI50 in [1] is 63.4 µM (inactive); in assay [2], 18 µM (inactive); in assay [3], > 100 µM (inactive); in [4] it was 28.8 µM (inactive); in assay [5], 39.9 µM (inactive); in [6], 67.1 µM (inactive). For the same compound, the GI50 in assay [7] was > 100 µM (inactive); in assay [8] it was > 100 µM (inactive); in assay [9] it was 35.3 µM (inactive); in assay [10], > 100 µM (inactive); in assay [18] it was 77.6 µM (inactive); in assay [12] it was 66.8 µM. The GI50 in assay [13] is 55.6 µM (inactive); in assay [14] it was > 100 µM (inactive); in assay [15], 71.9 µM (inactive); in assay [16], 33.3 µM (inactive); in assay [17], 53.2 µM (inactive).
On to `N#CC1(C2CC(=O)N(c3ccccc3)C2=O)CCCCC1=O` (stereo unspecified), for which the GI50 in assay [1] is > 100 µM (inactive); in [2], > 100 µM (inactive); in assay [3] it was 0.498 µM (active); in [4], > 100 µM (inactive); in [5], > 100 µM (inactive); in assay [6] it was > 100 µM (inactive). For the same compound, the GI50 in assay [9] was > 100 µM (inactive); in assay [10], > 100 µM (inactive); in assay [18], > 100 µM (inactive); in [11] it was > 100 µM (inactive); in assay [12], over 100 µM; in assay [13], > 100 µM (inactive). The GI50 in assay [14], in assay [15], in assay [16] and in assay [17] was > 100 µM (inactive) each time.
